Each structure is given as a SMILES string. “Also recorded” adds a separate entry of the source. Like-named read-outs stand apart in the source and are kept apart here.

Data set [1] can be described thus: CSF concentration after intranasal (IN) administration. Format: in vivo, Sprague Dawley® (SD) rats. From the text:
(§1) The purpose of this example was to evaluate the in vivo distribution and function of aminosterols, such as Aminosterol 1436 and squalamine, following intranasal administration. This experiment relates to the amount of drug needed to obtain a therapeutic result, based on an IN route of administration. The results described below detail that aminosterols such as Aminosterol 1436 act at the level of the hypothalamus following in vivo administration, regardless of the route of administration.
(§2) Pharmacokinetic information for these tests can be found in the tables below.

Data set [2] in a line: Plasma pharmacokinetics after intranasal (IN) administration. In kind it is in vivo, Sprague Dawley® (SD) rats.
Text: as §1, §2

A short description of data set [3]: Food intake and body weight after IP or ICV administration (FIG. 2B, 2C). Format: in vivo. The settings on record: 10 and 40 μg ICV, 5 mg/kg IP, 10 day period. The source says:
The purpose of this example was to evaluate the in vivo distribution of the aminosterol Aminosterol 1436 following intraperitoneal administration (IP) and ICV administration, and to determine the impact the drug has on food intake and body weight when administered IP and ICV.
This experiment is relevant as the areas of the brain where the aminosterol Aminosterol 1436 localized upon administration are known to control feeding behavior and appetite.

A short description of data set [4]: In vivo brain distribution of radiolabeled Aminosterol 1436 after ICV and IV administration. More on the design: species or system rat. Conditions: 3H-labeled. From the text:
The purpose of this example was to evaluate the in vivo distribution of Aminosterol 1436 following intracerebroventricular (ICV) and intravenous (IV) administration to rats. ICV injection is an invasive injection technique of substances directly into the cerebrospinal fluid in cerebral ventricles to bypass the blood brain barrier. The results described below detail how aminosterols such as Aminosterol 1436 localize in the brain following in vivo administration, regardless of the route of administration.
Radiolabeled Aminosterol 1436 was injected into rats by two different forms of administration: ICV and IV administration.

Data set [5] is described as follows: PK profile, IV bolus compared with IN administration (FIG. 9). Format: in vivo. The settings on record: rat, plasma. From the text: Thus, the amount of aminosterol in the bloodstream is too low to account for the observed pharmacological effect. This means that when administered IN, an aminosterol is having a pharmacological effect via a mechanism other than via plasma concentration of the drug.

Data set [6] in a line: Weight change after IP or IN administration (FIG. 8). Format: in vivo, mice. As for the experimental part: The purpose of this example was to evaluate and compare the impact on weight following administration of an aminosterol such as Aminosterol 1436 to mice via IP or IN.
Mice were administered: (i) intraperitoneally 1 mg/kg or 10 mg/kg of Aminosterol 1436, (ii) intranasally 0.4 mg/kg of Aminosterol 1436, or (iii) a saline control administered IN. Weight of the mice was then measured for 10 days post-administration.

Setting [7] is: plasma, 0.5 mg/kg IN dose, mean (Table 4).
Setting [8] is: Sprague-Dawley, rat, inhaled or intranasal, plasma, 0.5 mg/kg IN dose, mean.

For the compound `CC(C)[C@@H](CC[C@@H](C)[C@H]1CC[C@H]2[C@@H]3[C@H](O)C[C@H]4C[C@@H](NCCCNCCCCN)CC[C@]4(C)[C@H]3CC[C@]12C)OS(=O)(=O)O.C[C@H](O)C(=O)O.O` [Squalamine Lactate], the “Drug found in CSF” value in data set [1] (CSF, 0.5 mg/kg IN) is listed as “No squalamine lactate or Aminosterol 1436 was found in CSF”. In data set [2] (setting [7]), this compound showed an AUCInf of 7863 ng·h/mL, an AUClast of 5296 ng·h/mL, an MRTInf_obs of 7.12 H and a T1/2 of 4.55 H. For the same compound, the Tmax in data set [2] (setting [7]) was 1.00 H.
For `CC(C)[C@@H](CC[C@@H](C)[C@H]1CC[C@H]2[C@@H]3[C@H](O)C[C@H]4C[C@@H](NCCCNCCCCNCCCN)CC[C@]4(C)[C@H]3CC[C@]12C)OS(=O)(=O)O` [Aminosterol 1436], in data set [1] (Sprague-Dawley, rat, in vivo, 0.5 mg/kg), the “Drug found in CSF” value is given as “No squalamine lactate or Aminosterol 1436 was found in CSF”. Moreover, in data set [3], the “Effect on food intake” value was “significant impact on food intake”. Also, in data set [4] (ICV administration), the “Site of localization in brain” value was “localized to the same regions of the brain”. Moreover, the “Site of localization in brain” value in data set [4] (IV administration) is on record as “localized in the hypothalamus”. Also, the “Blood levels after intranasal administration relative to peripherally injected” value in data set [2] (IN versus peripherally injected) is reported as 10 times. Also, in data set [2] (setting [8]), the AUC(0-inf) turned out to be 17900 ng·h/mL, the exposure AUC(0-t) stood at 9370 ng·h/mL, the Cmax came to 1680 ng/mL and the half-life was 7.59 h. Further, the MRT inf in data set [2] (Sprague-Dawley, rat, inhaled or intranasal, plasma, 0.5 mg/kg IN dose, mean, read-out: MRTInf_obs) stood at 11.1 h. Moreover, the Tmax in data set [2] (Sprague-Dawley, rat, inhaled or intranasal, plasma, 0.5 mg/kg IN dose, mean, read-out: Tmax) is 4 h. In data set [5] (other: intranasal, IN 0.5 mg/kg compared with IV bolus 2 mg/kg), this compound had a bioavailability of about 20%. The AUC in data set [5] (IV bolus 2 mg/kg, read-out: PK profile value after IV bolus injection (AUC)) was found to be 190000 ng·h/mL. In addition, in data set [6] (0.4 mg/kg IN, 10 days post-administration), the “Decrease in weight, comparison in words” value is on record as “comparable to 10 mg/kg of intraperitoneally administered Aminosterol 1436”. The Decrease in weight result in data set [6] (0.4 mg/kg intranasal (IN)) is “about 5%”. Further, in data set [6] (1 mg/kg IP, compared with IN saline control), the “Effect on weight (anti-feeding effect)” value is given as “compared similarly to the intranasally administered saline control; also recorded: no anti-feeding effect”. Besides, the Decrease in weight entry in data set [6] (10 mg/kg IP) is recorded as “about 19%”.

Usually AUC(0-inf) stands for total exposure, with the tail of the curve extrapolated. The AUC(0-t) is exposure summed from dosing to a finite time, without extrapolation to infinity. Low readings indicate less exposure, high ones more exposure. By Cmax is commonly meant the peak of the concentration-time curve. As a reminder, the half-life is the time needed for the level to fall by half in the phase considered. High values mean slow decline, low ones rapid decline. The bioavailability is dose-corrected exposure relative to a reference, in per cent. A high value points to much systemic uptake. Broadly, the AUC is the area under the concentration-time curve, a measure of exposure.
